Like-named read-outs stand apart in the source and are kept apart here.
How the values were obtained:
hair loss = conditions: clinical studies, taken by mouth; cited from earlier work
scalp hair growth = experiment: Local application of insulin to the scalp, alone or before other agents, hair growth; type: in vivo, human
Description: Wash scalp with mild shampoo. Avoid using hair conditioners which may coat the bald skin resulting in prevention of the effective absorption of insulin. This is followed by application of oxidant. In our invention, we can use any one of the above described antioxidants, but in this instance we are discussing povidine iodine. […] Allow it to dry, and follow it by application of insulin by a spray or swab repeatedly 2-3 times as it dries.
Apply the Wash dressing on the wound if need be.
Step 4: Apply selected hair growth therapeutic agent, which includes prostaglandin and its derivatives which are already in the market and FDA approved.
We recommend the use of tocotrienols after insulin application so that this therapeutic agent can easily permeate the hair follicle and promote the hair growth.
Apply selected hair growth therapeutic agent using PGF 2α, and analogues.

[1] = test system: cultured human hair follicles; conditions: cited from earlier work; for preventing hair follicles from entering into a catagen-like state, compared with insulin / rates of hair follicle growth compared with 10 micrograms/ml insulin: IGF-I 10 ng/ml, IGF-II 100 ng/ml; for effect on hair follicle growth: in the presence of 10 micrograms/ml insulin
[2] = cited from earlier work
[3] = test system: hair loss due to chemotherapy; experiment: Insulin spray on the scalp during chemotherapy; type: in vivo, human; conditions: 3-5 units of insulin diluted in normal saline or ringers lactate, cancer patients
Experimental: It is this experience that leads us to this invention. […] We also experimented with application of cold pack to the scalp 15 minutes after insulin spray, which caused the constriction of BV and reduced the amount of chemotherapy agent reaching the scalp hair which causes havoc on the hair root cells. These three simple methods reduced the profound loss of scalp hair to chemotherapy toxic effects in cancer patients during chemotherapy treatment. Insulin applied directly to the scalp had preventive effect on hair loss due to chemotherapy.

[4] = Description: If one develops hypoglycemic symptoms due to any number of reasons, drink a sugar drink, eat a candy, or fruit cocktail.
wound healing = experiment: Local insulin on ulcers, tooth extraction wounds and gums; type: in vivo, human
Description: We have used insulin for more than a decade to enhance the effectiveness of locally injected therapeutic agents specially cancers with chemotherapeutic agents with remarkable results. Our research data also supports that the insulin spray on indolent ulcers anywhere in the body, including the oral (gums) and nasal cavity.

[5] = test system: MCF-7 human breast cancer cells; conditions: MCF-7 cells, insulin plus methotrexate; cited from earlier work
[6] = in the absence of insulin, 0.01-100 ng/ml

CC(C)(C)NC(=O)[C@H]1CC[C@H]2[C@@H]3CC[C@H]4NC(=O)C=C[C@]4(C)[C@H]3CC[C@]12C [Finasteride]
share of men in whom hair loss stopped (hair loss): 83%

COc1cc(/C=C/C(=O)CC(=O)/C=C/c2ccc(O)c(OC)c2)ccc1O [curcumin]
use as antioxidant for hair growth after application of insulin (scalp hair growth; applied after insulin): used effectively

IGF-I: Insulin-like growth factor I
preventing hair follicles from entering into a catagen-like state, compared with insulin [1]: more potent than insulin | rates of hair follicle growth compared with 10 micrograms/ml insulin [1]: identical | stimulation of hair follicle growth [1, 6]: stimulated hair follicle growth in a dose-dependent manner | concentration stimulating maximum rates of hair follicle growth ([1]; in the absence of insulin): 10 ng/mL | effect on hair follicle growth [1]: no significant effect

IGF-II: Insulin-like growth factor II
preventing hair follicles from entering into a catagen-like state, compared with insulin [1]: more potent than insulin | rates of hair follicle growth compared with 10 micrograms/ml insulin [1]: unable to stimulate hair follicle growth to the same extent as insulin | stimulation of hair follicle growth [1, 6]: stimulated hair follicle growth in a dose-dependent manner | concentration stimulating maximum rates of hair follicle growth ([1]; in the absence of insulin): 100 ng/mL | effect on hair follicle growth [1]: no significant effect

Regular (R) humulin or novolin: Short-acting insulin
Duration of action ([2]; in vivo): 5 to 8 h | Onset of action ([2]; in vivo): 30 to 60 min | Peak effect ([2]; short-acting insulin): 2 to 5 h

growth hormone: growth hormone (somatotrophin)
influence on hair follicle and hair growth ([1]; growth hormone alone): no direct influence

insulin: hormone secreted by beta cells in the islets of Langerhans in the pancreas
hair loss during chemotherapy [3]: reduced the hair loss dramatically | hypoglycemia ([4]; after application of insulin to the scalp): none of our cases developed hypoglycemia | side effect after application ([4]; insulin preparations on the scalp): itching and redness | darkening of the skin ([4]; simple insulin applied to enhance hair growth): did not result in any appreciable darkening of the skin | hair follicle transplant healing and growth (scalp hair growth; insulin applied with hair follicle transplant, no second agent): rapid wound healing along with uptake and growth of hair follicle transplant | hair growth (scalp hair growth; insulin on its own): enhances the hair growth | gum diseases (periodontitis) (wound healing; insulin and antibiotics such as doxycycline locally on the gums): eliminated gum diseases | healing after teeth extraction (wound healing; insulin soaked cotton swabs, 1-3-5 units in normal saline): rapid healing with reduced pain | wound healing (wound healing; insulin spray on indolent ulcers): accelerated wound healing | concentration giving maximum rates of hair follicle growth ([1]; follicles maintained in medium containing insulin): 10 micrograms/ml | stimulation of hair follicle growth ([1]; over the range of 0.01 to 100 micrograms/ml): stimulated hair follicle growth in a dose-dependent manner | increase of the cytotoxic effect of methotrexate [5]: up to 10,000 fold
